Experimental data reported in US9661854B2, “Molecules having pesticidal utility, and intermediates, compositions, and processes, related thereto” (Dow AgroSciences LLC, priority 2015, dated 2017).

Tests used:
[1] = system: Beet Armyworm (Spodoptera exigua, LAPHEG); assay: Bioassay on Beet Armyworm (BAW), 128-well diet tray assay; assay type: in vivo; conditions: 168 h, 50 μg/cm^2 on artificial diet, second instar larvae, 25° C., five to seven days, average of eight wells, read-out: BAW % Control (or Mortality) rating
How it was run: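 Second-instar larvae, one to five per well, fed artificial diet surface-treated with 50 μg/cm^2 test molecule in 90:10 acetone-water, dried before infestation; eight wells per molecule. Held at 25 °C, 14:10 light-dark for five to seven days; percent mortality averaged over wells.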

[2] = system: Cabbage Looper (Trichoplusia ni, TRIPNI); assay: Bioassay on Cabbage Looper (CL), 128-well diet tray assay; assay type: in vivo; conditions: 168 h, 50 μg/cm^2 on artificial diet, second instar larvae, 25° C., five to seven days, average of eight wells, read-out: CL % Control (or Mortality) rating
How it was run: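 Second-instar larvae (one to five per well) placed on artificial diet treated with 50 μg/cm^2 test molecule in 90:10 acetone-water, dried; eight wells per molecule. Held at 25° C., 14:10 light-dark, for five to seven days. Percent mortality scored per well and averaged over the eight wells.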

Structure (SMILES) | mortality at 50 µg/cm2 [1] [%] | mortality at 50 µg/cm2 [2] [%]
Cc1ccc(C(C)C)c(N2C(=O)CS/C2=N\C(=O)Nc2ccc(/C=C/c3ncn(-c4ccc(OC(F)(F)F)cc4)n3)cc2C(F)(F)F)c1 [F62, 1-((Z)-3-(2-isopropyl-5-methylphenyl)-4-oxothiazolidin-2-ylidene)-3-(4-((E)-2-(1-(4-(trifluoromethoxy)phenyl)-1H-1,2,4-triazol-3-yl)vinyl)-2-(trifluoromethyl)phenyl)urea] | 50 to 100 | 50 to 100
CCCc1ccc(C)cc1N1C(=O)CS/C1=N\C(=O)Nc1ccc(/C=C/c2ncn(-c3ccc(OC(F)(F)F)cc3)n2)cc1F [F63, 1-(2-Fluoro-4-((E)-2-(1-(4-(trifluoromethoxy)phenyl)-1H-1,2,4-triazol-3-yl)vinyl)phenyl)-3-((Z)-3-(5-methyl-2-propylphenyl)-4-oxothiazolidin-2-ylidene)urea] | 50 to 100 | 50 to 100
CC(C)c1ccc(C(F)(F)F)cc1N1C(=O)CS/C1=N\C(=O)Nc1ccc(/C=C/c2ncn(-c3ccc(OC(F)(F)F)cc3)n2)cc1F [F64, 1-(2-fluoro-4-((E)-2-(1-(4-(trifluoromethoxy)phenyl)-1H-1,2,4-triazol-3-yl)vinyl)phenyl)-3-((Z)-3-(2-isopropyl-5-(trifluoromethyl)phenyl)-4-oxothiazolidin-2-ylidene)urea] | 50 to 100 | 50 to 100
CC(C)c1ccc(C(F)(F)F)cc1N1C(=O)CS/C1=N\C(=O)Nc1ccc(/C=C/c2ncn(-c3ccc(OC(F)(F)F)cc3)n2)cc1 [F65, 1-((Z)-3-(2-isopropyl-5-(trifluoromethyl)phenyl)-4-oxothiazolidin-2-ylidene)-3-(4-((E)-2-(1-(4-(trifluoromethoxy)phenyl)-1H-1,2,4-triazol-3-yl)vinyl)phenyl)urea] | 50 to 100 | 50 to 100
Cc1ccc(C2CC2(F)F)c(N2C(=O)CS/C2=N\C(=O)Nc2ccc(/C=C/c3ncn(-c4ccc(OC(F)(F)F)cc4)n3)cc2)c1 (stereo not drawn) [F66, 1-((Z)-3-(2-(2,2-Difluorocyclopropyl)-5-methylphenyl)-4-oxothiazolidin-2-ylidene)-3-(4-((E)-2-(1-(4-(trifluoromethoxy)phenyl)-1H-1,2,4-triazol-3-yl)vinyl)phenyl)urea] | 50 to 100 | 50 to 100
Cc1ccc(C2CC2(F)F)c(N2C(=O)CS/C2=N\C(=O)Nc2ccc(/C=C/c3ncn(-c4ccc(OC(F)(F)F)cc4)n3)cc2F)c1 (stereo not drawn) [F67, 1-((Z)-3-(2-(2,2-difluorocyclopropyl)-5-methylphenyl)-4-oxothiazolidin-2-ylidene)-3-(2-fluoro-4-((E)-2-(1-(4-(trifluoromethoxy)phenyl)-1H-1,2,4-triazol-3-yl)vinyl)phenyl)urea] | 50 to 100 | 50 to 100
COCc1ccc(C)cc1N1C(=O)CS/C1=N\C(=O)Nc1c(F)cc(/C=C/c2ncn(-c3ccc(OC(F)(F)F)cc3)n2)cc1F [F68, 1-(2,6-Difluoro-4-((E)-2-(1-(4-(trifluoromethoxy)phenyl)-1H-1,2,4-triazol-3-yl)vinyl)phenyl)-3-((Z)-3-(2-(methoxymethyl)-5-methylphenyl)-4-oxothiazolidin-2-ylidene)urea] | 50 to 100 | 50 to 100
Cc1ccc(C(C)C)c(N2C(=O)CS/C2=N\C(=O)Nc2ccc(/C=C/c3ncn(-c4ccc(OC(F)(F)F)cn4)n3)cc2)c1 [F69, 1-((Z)-3-(2-isopropyl-5-methylphenyl)-4-oxothiazolidin-2-ylidene)-3-(4-((E)-2-(1-(5-(trifluoromethoxy)pyridin-2-yl)-1H-1,2,4-triazol-3-yl)vinyl)phenyl)urea] | 50 to 100 | 50 to 100
Cc1ccc(C(C)C)c(N2C(=O)CS/C2=N\C(=O)Nc2ccc(/C=C/c3ncn(-c4ccc(OC(F)(F)F)cc4)n3)cn2)c1 [F70, 1-((Z)-3-(2-isopropyl-5-methylphenyl)-4-oxothiazolidin-2-ylidene)-3-(5-((E)-2-(1-(4-(trifluoromethoxy)phenyl)-1H-1,2,4-triazol-3-yl)vinyl)pyridin-2-yl)urea] | 50 to 100 | 50 to 100
